Assays:
mGlu4 [1] = target: T1, mGlu4 (Rattus norvegicus, UniProt P31423); experiment: Ion dependency of [3H]3 binding; conditions: 10 nM [3H]3, 30 μM L-AP4, Hepes buffer with or without NaCl, MgCl2, KCl, CaCl2
mGlu4 [2] = target: T1, mGlu4; experiment: Temperature dependency of [3H]3 binding; conditions: 10 nM [3H]3, 100 nM Glu, 30 min
mGlu4 [3] = target: T1, mGlu4; experiment: Co-operative assay: enhancement of [3H]3 binding by orthosteric agonists
mGlu4 [4] = target: T1, mGlu4; experiment: mGlu4 competitive binding assay against [3H]ML128; conditions: 10 nM compound

T1 sequence (P31423 33-912): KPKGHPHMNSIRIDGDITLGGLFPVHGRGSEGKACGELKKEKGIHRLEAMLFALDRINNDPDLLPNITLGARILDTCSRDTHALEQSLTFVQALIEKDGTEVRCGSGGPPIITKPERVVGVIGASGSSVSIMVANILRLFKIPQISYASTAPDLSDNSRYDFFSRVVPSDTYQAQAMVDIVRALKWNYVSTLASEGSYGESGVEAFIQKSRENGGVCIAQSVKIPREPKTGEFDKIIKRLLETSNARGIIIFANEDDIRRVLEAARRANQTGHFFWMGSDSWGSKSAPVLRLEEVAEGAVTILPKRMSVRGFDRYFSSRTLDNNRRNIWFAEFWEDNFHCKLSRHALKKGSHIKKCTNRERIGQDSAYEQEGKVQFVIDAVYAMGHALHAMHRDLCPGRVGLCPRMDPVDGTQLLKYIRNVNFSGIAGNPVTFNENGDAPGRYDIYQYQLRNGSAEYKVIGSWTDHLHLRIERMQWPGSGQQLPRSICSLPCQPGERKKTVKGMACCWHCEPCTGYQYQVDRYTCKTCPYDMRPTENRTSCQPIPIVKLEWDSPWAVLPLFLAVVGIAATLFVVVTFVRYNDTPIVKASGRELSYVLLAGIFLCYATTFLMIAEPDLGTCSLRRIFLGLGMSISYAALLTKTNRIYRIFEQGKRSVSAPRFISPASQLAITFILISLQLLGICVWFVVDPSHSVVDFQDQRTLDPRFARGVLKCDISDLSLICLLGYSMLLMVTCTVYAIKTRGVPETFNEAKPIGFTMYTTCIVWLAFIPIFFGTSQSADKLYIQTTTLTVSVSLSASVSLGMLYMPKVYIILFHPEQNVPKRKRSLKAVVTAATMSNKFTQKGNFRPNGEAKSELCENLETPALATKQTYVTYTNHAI

## COc1cc(NC(=O)c2ccccn2)ccc1Cl [[^3H]3, N-(4-Chloro-3-methoxyphenyl)-2-picolinamide]
mGlu4 [1]
  ion dependency of specific binding: related to chloride ion
mGlu4 [2]
  total amount of specific binding at +4 °C and +25 °C: quite similar at +4 °C and +25 °C
mGlu4 [2]; +45 °C
  specific binding at higher temperature (+45 °C): drops the specific binding

## N[C@@H](CCC(=O)O)C(=O)O [compound 1, L-Glutamate acid]
mGlu4 [3]
  EC50: 0.832 µM

## NC(CCP(=O)(O)O)C(=O)O [compound 2, L-AP4]
mGlu4 [3]; 10 nM [3H]3, CHO cells expressing mGlu4, 30 min room temperature, n=3
  logEC50 (enhancement of [3H]3 binding by orthosteric agonist): −6.67 (SE 0.05)

## O=C(Nc1ccc(N2C(=O)c3cccc(F)c3C2=O)c(Cl)c1)c1ccccn1 [compound 4, N-(3-Chloro-4-(4-fluoro-1,3-dioxo-isoindolin-2-yl)phenyl)-2-picolinamide]
mGlu4 [4]; higher glutamate concentration, n=9, SE 1.2
  bound fraction of [3H]3, single concentration assay: 21.4%
mGlu4 [4]; lower glutamate concentration, n=9, SE 1.4
  bound fraction of [3H]3, single concentration assay: 35.4%
